Values quoted from earlier work, collected in patent US9498464B2, “Treatment of arterial wall by combination of RAAS inhibitor and HMG-CoA reductase inhibitor” (ARTSKIN d.o.o., priority 2011, dated 2016).

Tested on: arterial stiffness
Settings: 12 weeks, 80 mg then 160 mg/day, patients with type 2 diabetes and hypertension

CCCCC(=O)N(Cc1ccc(-c2ccccc2-c2nnn[nH]2)cc1)[C@H](C(=O)O)C(C)C [valsartan]
arterial stiffness (pulse wave analysis): improves arterial stiffness
